Read-outs that look alike come from different tables or passages of the source. Values belong to the molecule of their own block, whether it stands above or below them.
System: PANC-1 cells
Assay: cell viability assay in PANC-1 cells (compound alone, + 100 ng/ml TNFa, + 300 ng/ml TRAIL)
Assay type: cell-based
[1] = compound alone, Tables 6-10, read-out: IC50 (μM) in cell viability assay in PANC-1 cells: Compound alone
[2] = with 100 ng/ml TNFa, Tables 6-10, read-out: IC50 (μM) in cell viability assay in PANC-1 cells: Compound + 100 ng/ml TNFa
[3] = with 300 ng/ml TRAIL, Tables 6-10, read-out: IC50 (μM) in cell viability assay in PANC-1 cells: Compound + 300 ng/ml TRAIL
[4] = Homo sapiens, PANC-1, compound alone, Tables 6-10, read-out: IC50 (μM) in cell viability assay in PANC-1 cells: Compound alone
[5] = Homo sapiens, PANC-1 cells, compound alone, read-out: IC50 (uM) in cell viability assay in PANC-1 cells, Cmpnd alone
[6] = PANC-1 cells, + 100 ng/ml TNFa, read-out: IC50 (uM) in cell viability assay in PANC-1 cells, Cmpnd + 100 ng/ml TNFa
[7] = PANC-1 cells, + 300 ng/ml TRAIL, read-out: IC50 (uM) in cell viability assay in PANC-1 cells, Cmpnd + 300 ng/ml TRAIL
[8] = Homo sapiens, PANC-1, compound alone, Tables 15-18, read-out: IC50 (uM) in cell viability assay in PANC-1 cells: Cmpnd alone
[9] = with 100 ng/ml TNFa, Tables 15-18, read-out: IC50 (uM) in cell viability assay in PANC-1 cells: Cmpnd + 100 ng/ml TNFa
[10] = with 300 ng/ml TRAIL, Tables 15-18, read-out: IC50 (uM) in cell viability assay in PANC-1 cells: Cmpnd + 300 ng/ml TRAIL

IC50 [4]: > 1 µM
IC50 [2]: 0.037 µM
IC50 [3]: 0.072 µM
Structure (SMILES): CN[C@@H](C)C(=O)N[C@H](C(=O)N[C@@H](CCNC(=O)c1cccc(C(=O)N[C@H]2C[C@@H](C(=O)N[C@@H]3CCCc4ccccc43)N(C(=O)[C@@H](NC(=O)[C@H](C)NC)C3CCCCC3)C2)c1)C(=O)N[C@H](C)C(C)C)C(C)C [Compound 181]

IC50 [5]: > 1 µM
IC50 [6]: 0.193 µM
IC50 [7]: 0.115 µM
Structure (SMILES): C[C@H](N)C(=O)N[C@H](C(=O)N1C[C@@H](NC(=O)c2cccc(C(=O)N[C@H]3C[C@@H](C(=O)N[C@H]4CCCc5ccccc54)N(C(=O)[C@@H](NC(=O)[C@H](C)N)C(C)(C)C)C3)c2)C[C@H]1C(=O)N[C@H]1CCCc2ccccc21)C(C)(C)C [Compound P3-106]

IC50 [8]: > 1 µM
IC50 [9]: 0.022 µM
IC50 [10]: 0.04 µM
Structure (SMILES): CN[C@@H](C)C(=O)N[C@H](C(=O)N1CCC[C@H]1CN(CCCCCCN(CCc1ccccc1)C[C@@H]1CCCN1C(=O)[C@@H](NC(=O)[C@H](C)NC)C(C)(C)C)CCc1ccccc1)C(C)(C)C [Compound P4-22]

IC50 [5]: > 1 µM
IC50 [6]: 0.015 µM
IC50 [7]: 0.02 µM
Structure (SMILES): CN[C@@H](C)C(=O)N[C@H](C(=O)N1C[C@@H](NC(=O)c2cc(C(=O)N[C@H]3C[C@@H](C(=O)N[C@H](C)c4ccccc4)N(C(=O)[C@@H](NC(=O)[C@H](C)NC)C(C)(C)C)C3)n(C)n2)C[C@H]1C(=O)N[C@H](C)c1ccccc1)C(C)(C)C [Compound P3-107]

IC50 [5]: > 1 µM
IC50 [6]: 0.055 µM
IC50 [7]: 0.006 µM
Structure (SMILES): CN[C@@H](C)C(=O)N[C@H](C(=O)N1C[C@@H](NC(=O)C2CCCC(C(=O)N[C@H]3C[C@@H](C(=O)N[C@H](C)c4ccccc4)N(C(=O)[C@@H](NC(=O)[C@H](C)NC)C(C)(C)C)C3)C2)C[C@H]1C(=O)N[C@H](C)c1ccccc1)C(C)(C)C (stereo partly drawn) [Compound P3-96]

IC50 [5]: > 1 µM
IC50 [6]: 0.007 µM
IC50 [7]: 0.021 µM
Structure (SMILES): CN[C@@H](CO)C(=O)N[C@H](C(=O)N1C[C@@H](NC(=O)c2cccc(C(=O)N[C@H]3C[C@@H](C(=O)N[C@H](C)c4ccccc4)N(C(=O)[C@@H](NC(=O)[C@H](CO)NC)C(C)(C)C)C3)c2)C[C@H]1C(=O)N[C@H](C)c1ccccc1)C(C)(C)C [Compound P3-90]

IC50 [8]: > 1 µM
IC50 [9]: 0.079 µM
IC50 [10]: 0.09 µM
Structure (SMILES): CN[C@@H](C)C(=O)N[C@@H](CCCCNC(=O)c1cccc(C(=O)NCCCC[C@H](NC(=O)[C@H](C)NC)C(=O)N2C[C@@H](Oc3ccccc3)C[C@H]2C(=O)N[C@@H]2CCCc3ccccc32)c1)C(=O)N1C[C@@H](Oc2ccccc2)C[C@H]1C(=O)N[C@@H]1CCCc2ccccc21 [Compound P2-36]

IC50 [5]: > 1 µM
IC50 [6]: 0.012 µM
IC50 [7]: 0.036 µM
Structure (SMILES): CN[C@@H](C)C(=O)N[C@H](C(=O)N1C[C@@H](NC(=O)c2cc(C(=O)N[C@H]3C[C@@H](C(=O)N[C@H](C)c4ccc(Cl)cc4)N(C(=O)[C@@H](NC(=O)[C@H](C)NC)C(C)(C)C)C3)[nH]n2)C[C@H]1C(=O)N[C@H](C)c1ccc(Cl)cc1)C(C)(C)C [Compound P3-108]

IC50 [8]: > 1 µM
IC50 [9]: 0.005 µM
IC50 [10]: 0.006 µM
Structure (SMILES): CN[C@@H](C)C(=O)N[C@H](C(=O)N1CCC[C@H]1CN(CCc1ccccc1)C(=O)C(F)(F)F)[C@@H](C)OCC#CC#CCN(C(=O)[C@H](C)NC)[C@H](C(=O)N1CCC[C@H]1CN(CCc1ccccc1)C(=O)C(F)(F)F)[C@@H](C)O [Compound P4-19]

IC50 [8]: > 1 µM
IC50 [9]: 0.151 µM
IC50 [10]: 0.175 µM
Structure (SMILES): CN[C@@H](C)C(=O)N[C@H](C(=O)N1CCC[C@H]1CN(CCc1ccccc1)C(=O)CCC#CC#CCCC(=O)N(CCc1ccccc1)C[C@@H]1CCCN1C(=O)[C@@H](NC(=O)[C@H](C)NC)C(C)(C)C)C(C)(C)C [Compound P4-21]

IC50 [8]: > 1 µM
IC50 [9]: 0.094 µM
IC50 [10]: 0.092 µM
Structure (SMILES): CN[C@@H](C)C(=O)N[C@@H](CC(=O)NCC#CC#CCNC(=O)C[C@H](NC(=O)[C@H](C)NC)C(=O)N1CCC[C@H]1C(=O)N[C@@H]1CCCc2ccccc21)C(=O)N1CCC[C@H]1C(=O)N[C@@H]1CCCc2ccccc21 [Compound P2-41]

Second part, the molecule before the results:

Structure (SMILES): CC[C@@H](NC(=O)[C@@H]1C[C@H](NC(=O)c2cccc(C(=O)N[C@H]3C[C@@H](C(=O)N[C@H](CC)c4ccccc4)N(C(=O)[C@@H](NC(=O)[C@H](C)NC)C(C)(C)C)C3)c2)CN1C(=O)[C@@H](NC(=O)[C@H](C)NC)C(C)(C)C)c1ccccc1 [Compound 2]
IC50 [1]: > 1 µM
IC50 [2]: 0.062 µM
IC50 [3]: 0.054 µM

Structure (SMILES): CN[C@@H](C)C(=O)N[C@H](C(=O)N1CCC[C@H]1Cn1ccnc1Cc1ccccc1)[C@@H](C)OCC#CC#CCO[C@H](C)[C@H](NC(=O)[C@H](C)NC)C(=O)N1CCC[C@H]1Cn1ccnc1Cc1ccccc1 [Compound 74]
IC50 [4]: > 1 µM
IC50 [2]: > 1 µM
IC50 [3]: > 1 µM

Structure (SMILES): CN[C@@H](C)C(=O)N[C@H](C(=O)N1C[C@@H](NC(=O)c2[nH]c(C(=O)N[C@H]3C[C@@H](C(=O)N[C@H](C)c4ccccc4)N(C(=O)[C@@H](NC(=O)[C@H](C)NC)C(C)(C)C)C3)c3c2OCCO3)C[C@H]1C(=O)N[C@H](C)c1ccccc1)C(C)(C)C [Compound P3-95]
IC50 [5]: > 1 µM
IC50 [6]: 0.006 µM
IC50 [7]: 0.006 µM

Structure (SMILES): CN[C@@H](C)C(=O)N[C@H](C(=O)N1C[C@@H](NC(=O)c2cc(C(=O)N[C@H]3C[C@@H](C(=O)N[C@H](C)Cc4ccccc4)N(C(=O)[C@@H](NC(=O)[C@H](C)NC)C(C)(C)C)C3)[nH]n2)C[C@H]1C(=O)N[C@H](C)Cc1ccccc1)C(C)(C)C [Compound 11]
IC50 [4]: > 1 µM
IC50 [2]: 0.834 µM
IC50 [3]: 0.545 µM

Structure (SMILES): CN[C@@H](C)C(=O)N[C@H](C(=O)N1CCC[C@H]1C(=O)N[C@H](C)c1ccccc1)[C@H](C)NC(=O)CCCCC(=O)N[C@@H](C)[C@H](NC(=O)[C@H](C)NC)C(=O)N1CCC[C@H]1C(=O)N[C@H](C)c1ccccc1 [Compound 113]
IC50 [4]: > 1 µM
IC50 [2]: 0.208 µM
IC50 [3]: 0.203 µM

Structure (SMILES): CN[C@@H](C)C(=O)N[C@@H](CCCCCC[C@H](NC(=O)[C@H](C)NC)C(=O)N1CC[C@H]1C(=O)N[C@@H]1CCCc2ccccc21)C(=O)N1CC[C@H]1C(=O)N[C@@H]1CCCc2ccccc21 [Compound 102]
IC50 [4]: > 1 µM
IC50 [2]: 0.064 µM
IC50 [3]: 0.069 µM

Structure (SMILES): CC[C@@H](NC)C(=O)N[C@@H](C(=O)N[C@@H](C)C(=O)N[C@H](COCC#CC#CCOC[C@@H](NC(=O)C1CCCN1C(=O)[C@@H](NC(=O)[C@H](C)NC)C(C)(C)C)C1CCCCC1)C(C)C)C1CCCCC1 (stereo partly drawn) [Compound H-9]
IC50 [8]: > 1 µM
IC50 [9]: 0.005 µM
IC50 [10]: 0.004 µM

Structure (SMILES): CN[C@@H](C)C(=O)N[C@H](C(=O)N[C@@H](CCNC(=O)c1cccc(C(=O)N[C@H]2C[C@@H](C(=O)N[C@@H]3CCCc4ccccc43)N(C(=O)[C@@H](NC(=O)[C@H](C)NC)C(C)(C)C)C2)c1)C(=O)N[C@H](C)c1ccccc1)C(C)C [Compound 175]
IC50 [4]: > 1 µM
IC50 [2]: 0.0163 µM
IC50 [3]: 0.0357 µM

Structure (SMILES): CN[C@@H](C)C(=O)N[C@H](C(=O)N1C[C@@H](NC(=O)c2cccc(C(=O)N[C@H]3C[C@@H](C(=O)N[C@H](COC)[C@@H](C)OC)N(C(=O)[C@@H](NC(=O)[C@H](C)NC)C(C)(C)C)C3)c2)C[C@H]1C(=O)N[C@H](COC)[C@@H](C)OC)C(C)(C)C [Compound 69]
IC50 [4]: > 1 µM
IC50 [2]: > 1 µM
IC50 [3]: > 1 µM

Structure (SMILES): CN[C@@H](C)C(=O)N[C@H](C(=O)N1C[C@H](NC(=O)c2ccc(CCc3ccc(C(=O)N[C@@H]4C[C@@H](C(=O)N[C@@H]5CCCc6ccccc65)N(C(=O)[C@@H](NC(=O)[C@H](C)NC)C(C)(C)C)C4)cc3)cc2)C[C@H]1C(=O)N[C@@H]1CCCc2ccccc21)C(C)(C)C [Compound P2-46]
IC50 [8]: > 1 µM
IC50 [9]: 0.0007 µM
IC50 [10]: 0.0009 µM

Structure (SMILES): CN[C@@H](C)C(=O)N[C@H](C(=O)N1C[C@@H](NC(=O)c2cc(C(=O)NCCN)cc(C(=O)N[C@H]3C[C@@H](C(=O)N[C@@H]4CCCc5ccccc54)N(C(=O)[C@@H](NC(=O)[C@H](C)NC)C(C)(C)C)C3)c2)C[C@H]1C(=O)N[C@@H]1CCCc2ccccc21)C(C)(C)C [Compound 126]
IC50 [4]: > 1 µM
IC50 [2]: 0.023 µM
IC50 [3]: 0.028 µM

Structure (SMILES): CN[C@@H](C)C(=O)N[C@H](C(=O)N1CCC[C@H]1C(=O)N[C@H](C)c1ccccc1)[C@H](C)NC(=O)c1ccc(C(=O)N[C@@H](C)[C@H](NC(=O)[C@H](C)NC)C(=O)N2CCC[C@H]2C(=O)N[C@H](C)c2ccccc2)cc1 [Compound 114]
IC50 [4]: > 1 µM
IC50 [2]: 0.199 µM
IC50 [3]: 0.184 µM

Structure (SMILES): CN[C@@H](C)C(=O)N[C@H](C(=O)N1C[C@@H](NC(=O)c2cccc(C(=O)N[C@H]3C[C@@H](C(=O)NC4CCCc5c(OC)cccc54)N(C(=O)[C@@H](NC(=O)[C@H](C)NC)C(C)(C)C)C3)c2)C[C@H]1C(=O)NC1CCCc2c(OC)cccc21)C(C)(C)C (single isomer, unassigned) [Compound 47]
IC50 [1]: > 1 µM
IC50 [2]: 0.012 µM
IC50 [3]: 0.011 µM

Structure (SMILES): CN[C@@H](C)C(=O)N[C@H](C(=O)N1C[C@@H](NC(=O)C23CC4CC(C2)CC(C(=O)N[C@H]2C[C@@H](C(=O)N[C@H](C)c5ccccc5)N(C(=O)[C@@H](NC(=O)[C@H](C)NC)C(C)(C)C)C2)(C4)C3)C[C@H]1C(=O)N[C@H](C)c1ccccc1)C(C)(C)C [Compound P3-101]
IC50 [5]: > 1 µM
IC50 [6]: 0.001 µM
IC50 [7]: 0.001 µM

— patent publication US20130344026A1, “Dimeric Smac Mimetics” (priority 2009, published 2013)
